Measurements published in ChEMBL document CHEMBL1150894, “Three new manzamine congeners from amphimedon sponge” (J Nat Prod, 1998).
In brackets after ≈: the same amount, converted by molar mass.

Legend:
Micrococcus luteus = experiment: Antibacterial activity against Sarcina lutea; format: functional
L1210 = experiment: Cytotoxicity against mouse L1210 cells; format: functional, cell-based
Corynebacterium xerosis = experiment: Antibacterial activity against Corynebacterium xerosis; format: functional

SMILES | MIC (Micrococcus luteus) | IC50 (L1210) | MIC (Corynebacterium xerosis)
O[C@]12C=C(C3=NCCc4c3[nH]c3ccccc43)[C@@H]3CCN(CC/C=C\CCCC1)C[C@@]31CC/C=C\CCCCN[C@H]12 | 12.5 µg/mL (≈ 22.6 µM) | 0.5 µg/mL (≈ 0.904 µM) | 12.5 µg/mL (≈ 22.6 µM)
O[C@]12C=C(c3nccc4c3[nH]c3ccccc34)[C@@H]3CCN(CCCC/C=C\CC1)C[C@@]31C[C@@H]3/C=C\CCCCN3[C@H]12 [MANZAMINE A] | 2.3 µg/mL (≈ 4.19 µM) | 1.4 µg/mL (≈ 2.55 µM) | 5.7 µg/mL (≈ 10.4 µM)
